Data reported in a melting point compilation (Tetko et al.; mined from patent text by program, amines drawn as free bases though some values may be those of a salt).

With `N#Cc1cc(=O)n2nc(S(=O)(=O)Cc3ccccc3)sc2n1` the melting point was 214 to 217 °C. `Cc1cc(C(=O)N2Cc3cccn3Cc3ccccc32)ccc1C1=CCCCC1C(C)(C)C` (stereo not drawn) gave a melting point of 127 to 129 °C. In the case of `CNC[C@H]1CC[C@H](C(=O)O)CC1`, the melting point is reported as 261 °C. With `CCCn1c(=O)c2[nH]c(-c3cc(C)n(CC(=O)Nc4ccc(F)cc4)n3)nc2n(CCC)c1=O` the melting point was 205 to 207 °C. `COC(=O)COc1ccc(NC(=O)CCc2ccc(C#N)cc2)cc1` showed a melting point of 141 °C. `O=C(O)c1cnc2occc2c1` showed a melting point of 274 to 275 °C. `Cc1n[nH]c2cc(-c3nn(C(C)c4oc5ccc(F)cc5c(=O)c4-c4ccccc4)c4ncnc(N)c34)ccc12` (stereo not drawn) showed a melting point of 253 to 255 °C. Work on `CC(=O)OC1C(=O)NC1c1ccco1` (stereo not drawn) yielded a melting point of 118 to 119 °C. For `COc1cc(CCCC2SC(=O)NC2=O)ccc1OCc1nc(-c2ccccc2)sc1C` (stereo not drawn), the melting point was 149 to 150 °C. In the case of `CCCCc1nc(Cl)c(C(=O)O)n1Cc1ccc2oc(-c3ccccc3-c3nnn[nH]3)cc2c1`, the melting point is reported as 209 to 210 °C. For `Brc1cnc(SCc2cccs2)nc1`, the melting point was 87 °C. In the case of `Cc1ncncc1C(=O)Nc1ccc(-n2nc(C(F)(F)F)c(Cl)c2C2CC2)c(F)c1`, the melting point is reported as 183 to 185 °C. For `COc1cc(O)ccc1/C=C/c1ccc(O)cc1`, the melting point was 192 to 194 °C. Compound `CCCC(=O)C(=O)C(CC1CCCCC1)NC(=O)C(CC(C)C)NC(=O)C(Cc1ccccc1)NC(=O)OC(C)(C)C` (stereo not drawn) has a melting point of 87 to 92 °C. In the case of `Brc1ccn2nc(-c3ccccc3)nc2c1`, the melting point is reported as 189 to 191 °C. `CCCCCCCOC1CCC(=O)N1` (stereo not drawn) showed a melting point of 52 to 54 °C. `COc1cc(-c2ccc(NC(=O)OC(C)(C)C)cc2)c(C(C)=NOCc2ccc([N+](=O)[O-])cc2)cc1O` gave a melting point of 91 to 96.8 °C. In the case of `Cc1ccc(OCC#CI)cn1`, the melting point is reported as 155 to 157 °C. In the case of `CC(C)(C)c1ccc(C[C@H]2NC(=O)O[C@H]2c2ccc(F)cc2)cc1` (racemic), the melting point is reported as 218 to 219 °C. With `COc1ccc(C=C[N+](=O)[O-])c(Cl)c1OC` the melting point was 88 to 91 °C. `O=Cc1ccc(-c2cn3ccnc3s2)cc1` gave a melting point of 169 °C. In the case of `CCOC(=O)C(=O)Nc1cccc(OC)c1C(N)=O`, the melting point is reported as 170 to 173 °C. `O=c1[nH]c2cc(C(F)(F)F)c(Cl)c(Cl)c2[nH]c1=O` gave a melting point of over 250 °C. In the case of `COC[C@H]1CN(c2ccc(OCCC3(C(F)(F)F)OCCO3)cc2)C(=O)O1`, the melting point is reported as 112 °C. In the case of `COC(=O)/C=C/c1c(F)cc2nn(C)cc2c1C(=O)OC`, the melting point is reported as 130 to 132 °C. `CC(O)c1cc(Cl)ccc1O` (stereo not drawn) gave a melting point of 98 °C. Work on `CCCCCCCCCCCCCC(=O)c1cc(O)c(C)c(C)c1O` yielded a melting point of 100 °C. Compound `CC(C)(C)OC(=O)N1CC(c2ccc(N)nc2)C1` has a melting point of 103 to 104 °C. Work on `CCOC(=O)c1ccccc1-n1c(=O)c2ccccc2n(CCCCBr)c1=O` yielded a melting point of 101 to 102 °C. With `COC1=CC2=CCC3C4CC=CC4(C)CCC3C2(C)CC1` (stereo not drawn) the melting point was 83 to 92 °C. `N#Cc1cccc(-c2ccc(=O)n(Cc3cccc(-c4ncc(Br)cn4)c3)n2)c1` gave a melting point of 178 to 179 °C. In the case of `CC(C)C1NCC(=O)N1CC(=O)NCC(N)=O` (stereo not drawn), the melting point is reported as 65 to 70 °C. Compound `COC(=O)Cc1ccc(OCc2ccc3ccccc3n2)c(Br)c1` has a melting point of 90 °C. Compound `CNS(=O)(=O)c1cn(C)c2ccc(OC)cc2c1=O` has a melting point of 262 to 264 °C. Compound `Cc1ncccc1NC(=NC#N)NC(NC(=O)Cc1ccc(Cl)cc1)C(C)(C)C` (stereo not drawn) has a melting point of 180 to 181 °C. For `COc1ccc(C(N)=O)c(N)c1`, the melting point was 152 to 156 °C. `CC(C)CCc1ccc(C=CC(O)=S)cc1` gave a melting point of 132 to 133 °C. For `C[Si](C)(C)NC(=O)c1ccccc1`, the melting point was 111 to 115 °C. `CC(C)(C)C(NC(=O)c1ccc(Cl)cc1)NC(=NC#N)Nc1cccc(F)c1` (stereo not drawn) showed a melting point of 167 to 170 °C. `O=C(O)c1ccccc1Nc1ccnn1-c1ccccn1` showed a melting point of 216 to 218 °C. `Nc1ncnc2ncn(COCCO)c12` showed a melting point of 122 to 123 °C. Compound `CN(CC(=O)O)C(=O)c1c(N)cccc1I` has a melting point of 147 to 149 °C. In the case of `COc1ccc(-c2cc(C(=O)NCc3ccccn3)c(=O)n(C)n2)cc1`, the melting point is reported as 122 to 123 °C. For `Brc1ccc2nc(Br)nn2c1`, the melting point was 201 °C. `C=CCc1cc(C(=O)c2ccc(Cl)c(S(=O)(=O)N=CN(C)C)c2)c(Cl)c(Cl)c1O` showed a melting point of 190 to 193 °C. In the case of `CN(C)CCc1c[nH]c2cc(N(S(=O)(=O)c3cc(Cl)cc(Cl)c3)S(=O)(=O)c3cc(Cl)cc(Cl)c3)ccc12`, the melting point is reported as 103 to 107 °C. `COC(=O)c1ccc(OCCNC(=O)C2Cc3ccccc3N2S(=O)(=O)c2ccc(-c3cc(C(F)(F)F)ccc3Cl)cc2)cc1F` (stereo not drawn) gave a melting point of 84 to 85 °C. For `Cc1nnc(-c2ccc3occ(-c4ccc(S(=O)C(C)C)cc4)c3c2)o1` (stereo not drawn), the melting point was 157 to 158 °C. For `CCCCCCCCCCCCCCOc1ccc(CC(=O)Nc2cccc(C(=O)OCC)c2)cc1`, the melting point was 91 to 94 °C. Compound `c1ccc2sc(-c3nc(COc4ccc(CCCn5ccnc5)cc4)co3)cc2c1` has a melting point of 149 to 150 °C. `CC(Oc1ncn(-c2ccccc2Cl)n1)C(=O)O` (stereo not drawn) gave a melting point of 104 to 106 °C. Work on `Cc1ccc(CNC(=O)C(=O)NCCc2ccccn2)n1C` yielded a melting point of 147 to 149 °C. In the case of `COC1=C(c2ccccc2)C(CC(=O)O)OC1=O` (stereo not drawn), the melting point is reported as 159 to 160 °C. With `CCC(CC)C(c1ccnn1-c1ccccc1)N(C)S(=O)(=O)c1ccc(Br)s1` (stereo not drawn) the melting point was 116 to 118 °C. `OC(CNc1c(Br)cnc2ccccc12)c1ccccc1` (stereo not drawn) gave a melting point of 131 to 132 °C. In the case of `CCCC1=C(C(=O)OCC)C(c2cccc3c2OCCC3)c2c[nH]nc2N1` (stereo not drawn), the melting point is reported as 159 to 161 °C. With `CCn1c2cc(Cl)ccc2c2oc(C(=O)Cl)cc21` the melting point was 137 to 138 °C. With `Nc1c(F)c(N2CCCCCC2)c(F)c2c1c(=O)c(C(=O)O)cn2C1CC1` the melting point was 234 to 236 °C. In the case of `Cc1nn(-c2c(Cl)cc(C(F)(F)F)cc2Cl)nc1S`, the melting point is reported as 86 to 89 °C. Work on `O=C1NCCN1c1ccc(S(=O)(=O)Nc2ccccc2)cc1` yielded a melting point of 262 to 264 °C. `Cc1cc(-c2cc(C(C)(C)C)[nH]n2)c(F)cc1Cl` gave a melting point of 138 °C. `COc1ccc(-c2nc(-c3cccn3CC(=O)OCCC(C)C)sc2-c2ccc(OC)cc2)cc1` gave a melting point of 98.5 to 102 °C. Compound `O=C(O)CSc1nccc(-n2cc(C3c4ccccc4C=Cc4ccccc43)c(=S)[nH]c2=O)n1` has a melting point of 190 °C. `COc1ccccc1OCC1(COc2ccccc2OC)NCCS1` showed a melting point of 86 to 88 °C. Compound `COc1ccc2[nH]c(CCCCCCCCCCCCCCO)cc2c1` has a melting point of 68 to 69 °C. Compound `COc1ccc(C(=O)Nc2ccc(N3CCC(NC[C@H](O)COc4cccc5[nH]c6ccccc6c45)CC3)cc2)cc1OC` has a melting point of 183 to 191 °C. With `CCOC(=O)C1=C(C)NC(C)=C(C(=O)OCC)C1c1ccc(F)cc1` the melting point was 150 to 151 °C. `CSC(C)=NOC(=O)N(C)SCCSN(C)C(=O)ON=C(SC)C(=O)N(C)C` showed a melting point of 102 to 106 °C. Work on `Cc1c(-c2ccc(NC(=O)C(C)C)cc2)sc2ncc(C(=O)C(C)C)c(O)c12` yielded a melting point of 247 to 249 °C. Work on `CN(c1ccc(C2CCCCC2)cc1)c1nc(=O)c2cccnc2s1` yielded a melting point of 192 to 195 °C. With `C=CCc1cccc2c(=O)cc(-c3ccc(F)cc3)oc12` the melting point was 98 to 100 °C. With `Clc1ccc(NC2CCCCC2)nn1` the melting point was 161 to 163 °C. `CCn1nc2c(N)nc3ccccc3c2c1CC1(F)CCN(C(C)=O)CC1` showed a melting point of 228 to 230 °C. `N#CC1=C(c2ccccc2)Nc2n[nH]cc2C1c1ccccc1C#N` (stereo not drawn) gave a melting point of 148 °C. `NS(=O)(=O)c1c(Cl)sc(Cl)c1Br` showed a melting point of 113 to 117 °C. `CCN(CC)C(=S)SCC(c1cccc2ccccc12)[N+](=O)[O-]` (stereo not drawn) showed a melting point of 136 to 138 °C. Compound `CCCCCCCCCCCC(=O)N1CCc2nc3ccccc3c(C)c2CC1` has a melting point of 100 °C. `O=C1Nc2ccccc2N(C(=O)Cc2ccccc2)c2cscc21` showed a melting point of 165 to 168 °C. For `CC(C(=O)O)c1ccc(-c2ccc(Br)cc2Br)cc1` (stereo not drawn), the melting point was 114 to 116 °C. `CN(C)c1ccc2c(c1)N(CCCN1CCC(C(=O)O)CC1)c1ccccc1CC2` showed a melting point of 198 to 202 °C. `COc1ccc2[nH]c(SCc3ncc(C)c(N(C)C)c3Cl)nc2c1` showed a melting point of 109 to 110 °C. For `FC(F)(F)c1cc(Cl)c(-n2cc(C#CBr)c(C(F)(F)F)n2)c(Cl)c1`, the melting point was 92 to 94 °C. In the case of `CC(=O)OC1CSC(Oc2ccc(C)nc2C)C(OC(C)=O)C1OC(C)=O` (stereo not drawn), the melting point is reported as 139 to 140 °C. For `CCCC(=O)Nc1n[nH]c2c(F)c(N3CCOCC3)c(Br)cc12`, the melting point was 240 °C. Work on `CNc1ccc(OCCN2CCC(Cc3ccc(C)cc3)CC2)cc1` yielded a melting point of 136 to 137 °C. With `COc1ccccc1C1CCNC(N)=N1` (stereo not drawn) the melting point was 189 to 191 °C. With `CCC(C(C)=CC(CNC(=O)c1nccnc1N)=NO)[N+](=O)[O-]` (stereo not drawn) the melting point was 139 to 141 °C. `CCCCNC(=O)NS(=O)(=O)c1c(Cl)cccc1S(=O)(=O)N(C)C` showed a melting point of 107 to 115 °C. `N#CCC(=O)c1ccc(C(F)(F)F)cc1[N+](=O)[O-]` gave a melting point of 79.5 to 80.5 °C. `CS(=O)(=O)Nc1cc2occc(=O)c2cc1Oc1ccccc1` showed a melting point of 217 to 218 °C. Work on `CC(C)c1nc(CO)n(Cc2ccc([N+](=O)[O-])cc2)c1Sc1cc(Cl)cc(Cl)c1` yielded a melting point of 192 to 194 °C. In the case of `O=C(O)c1ccc(OC(F)F)c2oc3ccncc3c12`, the melting point is reported as over 250 °C. Compound `O=S(=O)(c1cccs1)c1ccc(O)c(Cl)c1Cl` has a melting point of 220 °C. Compound `N=C(Nc1ccc(CNC=Nc2cccs2)cc1)c1cccs1` has a melting point of 200 to 201 °C. For `CCOC(=O)c1cnn(-c2cc(Cl)cc(Cl)c2)c1C(N)=O`, the melting point was 164 to 166 °C. In the case of `COc1cc(CC(C)NC(=O)c2ccccc2)cc2c1OC(C)(C)C2` (stereo not drawn), the melting point is reported as 141 to 142 °C. For `CC(=O)Oc1c(C)c(C)c2c(c1C)CCC(C)(O)O2` (stereo not drawn), the melting point was 127 to 132 °C. Work on `CCCCc1nc2cc(CO)ccc2n1Cc1ccc(-c2ccccc2C(=O)O)cc1` yielded a melting point of 130 to 143 °C. `CC(C)(CCC(F)(F)C(F)(F)C(F)(F)C(F)(F)C(F)(F)C(F)(F)C(F)(F)C(F)(F)F)OC(=O)N1CCC(C(=O)O)CC1` showed a melting point of 140 to 142 °C. In the case of `CCOC(C)O[C@H]1C(=O)N(C(=O)OC(C)(C)C)[C@H]1C=Cc1ccccc1` (stereo partly drawn), the melting point is reported as 69 to 73 °C. `O=C(O)COc1ccc2cc(CNC(=O)c3cnn(-c4ccc(Cl)cc4)c3C(F)(F)F)ccc2c1Br` showed a melting point of 245 °C. For `COc1cc2c(c(Cl)c1Cl)C(=O)C(c1ccccc1)(c1ccccc1)C2`, the melting point was 172 to 174 °C. Work on `CC(C)c1ccc(Oc2ccc(C(=O)c3ccc(Oc4ccc(C(C)C)cc4)cc3)cc2)cc1` yielded a melting point of 104 to 105 °C.
